The text below walks through data of PMC12299554 (Pharmaceuticals, 2025).

The IC50 is the concentration at which inhibition is half-maximal.

Series [1] deals with T1, AChE (EC 3.1.1.7, Electrophorus electricus, Type V-S) (Electrophorus electricus, UniProt O42275).
T1 construct: purchased Sigma-Aldrich Type V-S
In words: biochemical. As to conditions: mean of three measurements ± standard deviation. The procedure:
All measurements were conducted in triplicate. […] The selectivity index is calculated as IC50(AChE)/IC50(BChE).

The next series deals with PBMCs. In words: Cell viability of LPS-stimulated PBMCs (CellTiter-Glo). The class given is cell-based. The note with it: human PBMCs, 24 h; three-fold dilutions starting at 100 µM. A general note: ATP-based viability assays read luminescence as a measure of living cells.
The target of series [2] is BChE (EC 3.1.1.8, equine serum) (Equus caballus, UniProt P81908). In words: biochemical.
BChE (EC 3.1.1.8, equine serum), sequence (P81908 whole entry): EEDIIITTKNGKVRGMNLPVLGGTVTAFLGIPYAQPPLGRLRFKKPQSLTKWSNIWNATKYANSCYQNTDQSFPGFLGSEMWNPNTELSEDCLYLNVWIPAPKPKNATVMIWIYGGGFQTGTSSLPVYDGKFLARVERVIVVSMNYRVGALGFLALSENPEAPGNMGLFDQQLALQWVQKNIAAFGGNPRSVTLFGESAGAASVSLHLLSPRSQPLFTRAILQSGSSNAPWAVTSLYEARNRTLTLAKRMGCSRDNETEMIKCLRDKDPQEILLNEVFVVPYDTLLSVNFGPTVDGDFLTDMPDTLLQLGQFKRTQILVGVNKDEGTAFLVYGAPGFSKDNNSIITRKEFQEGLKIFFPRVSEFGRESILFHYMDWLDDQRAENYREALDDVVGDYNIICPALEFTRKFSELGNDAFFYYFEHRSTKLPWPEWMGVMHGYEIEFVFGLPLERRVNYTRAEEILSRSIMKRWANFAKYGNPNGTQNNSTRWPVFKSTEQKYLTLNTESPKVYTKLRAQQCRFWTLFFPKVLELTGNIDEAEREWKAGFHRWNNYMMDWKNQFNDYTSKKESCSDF
Series [3] relates to LPS-stimulated TNF-α production in human peripheral blood mononuclear cells (PBMCs). The series can be described thus: Inhibition of LPS-stimulated TNF-α production in PBMCs (ELISA). As to conditions: for Inhibition of LPS-stimulated TNF-α production (in words): human PBMCs, three-fold dilutions starting at 100 µM; for IC50: Homo sapiens, PBMC, 24 h, read-out: IC50 of LPS-stimulated TNF-α production.

T1 sequence (O42275 24-633): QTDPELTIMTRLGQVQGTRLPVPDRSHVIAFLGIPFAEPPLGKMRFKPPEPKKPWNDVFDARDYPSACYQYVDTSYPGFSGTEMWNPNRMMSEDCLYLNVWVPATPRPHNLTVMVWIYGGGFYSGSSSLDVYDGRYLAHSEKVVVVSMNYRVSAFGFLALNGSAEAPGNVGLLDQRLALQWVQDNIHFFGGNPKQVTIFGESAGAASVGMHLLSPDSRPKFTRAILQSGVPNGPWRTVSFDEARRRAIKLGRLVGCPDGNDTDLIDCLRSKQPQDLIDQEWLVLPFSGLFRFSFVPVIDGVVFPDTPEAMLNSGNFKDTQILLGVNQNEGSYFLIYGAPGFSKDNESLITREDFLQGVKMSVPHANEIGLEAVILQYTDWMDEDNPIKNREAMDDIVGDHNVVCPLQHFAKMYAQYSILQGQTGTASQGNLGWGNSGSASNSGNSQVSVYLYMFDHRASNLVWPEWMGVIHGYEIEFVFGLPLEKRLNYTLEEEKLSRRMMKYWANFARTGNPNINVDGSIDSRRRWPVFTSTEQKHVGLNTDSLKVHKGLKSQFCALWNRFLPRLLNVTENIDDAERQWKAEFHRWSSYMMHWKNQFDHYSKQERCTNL

With `Cc1ccc(C[n+]2nn(Cc3ccc(Cl)cc3)c3c4ccsc4ccc32)cc1.[Br-]` [Compound 1, 1-(4-chlorobenzyl)-3-(4-methylbenzyl)-1H-thieno[3′,2′:3,4]benzo[1,2-d][1,2,3]triazol-3-ium bromide], the IC50 in series [1] came out at 12.7 ± 1.85 µM; in series [2], 2.55 ± 0.58 µM. The “Effect on cell viability (in words)” value with PBMCs is “decreased cell viability”. The “Inhibition of LPS-stimulated TNF-α production (in words)” value (“Inhibition” below) in series [3] is given as “did not inhibit TNF-α production”.

As to `Clc1ccc(Cn2n[n+](Cc3ccc(Cl)cc3)c3ccc4sccc4c32)cc1.[Br-]` [Compound 2, 1,3-bis(4-chlorobenzyl)-1H-thieno[3′,2′:3,4]benzo[1,2-d][1,2,3]triazol-3-ium bromide], the IC50 in series [1] came to 10.7 ± 1.46 µM; in series [2], 4.99 ± 1.1 µM. For the same compound, in the series on PBMCs, the “Effect on cell viability (in words)” value is given as “decreased cell viability”. For the same compound, the “Inhibition” value in series [3] is reported as “did not inhibit TNF-α production”.

Regarding `Cc1cc2c(ccc3c2n(Cc2ccc(Cl)cc2)n[n+]3Cc2ccc(Cl)cc2)s1.[Br-]` [Compound 3, 1,3-bis(4-chlorobenzyl)-7-methyl-1H-thieno[3′,2′:3,4]benzo[1,2-d][1,2,3]triazol-3-ium bromide], the IC50 in series [1] was 8.89 ± 3.26 µM; in series [2], 7.6 ± 0.82 µM. Further, the “Inhibition” value in series [3] is “did not inhibit TNF-α production at any tested concentrations”.

As to `Clc1cccc(Cn2n[n+](Cc3ccccc3)c3ccc4sccc4c32)c1.[Br-]` [Compound 4, 3-benzyl-1-(3-chlorobenzyl)-1H-thieno[3′,2′:3,4]benzo[1,2-d][1,2,3]triazol-3-ium bromide], in the series with PBMCs, the “Effect on cell viability (in words)” value was “decreased cell viability”. Further, in series [3], the “Inhibition” value is recorded as “did not inhibit TNF-α production”.

In the case of `Cc1ccc(C[n+]2nn(Cc3cccc(Cl)c3)c3c4ccsc4ccc32)cc1.[Br-]` [Compound 5, 1-(3-chlorobenzyl)-3-(4-methylbenzyl)-1H-thieno[3′,2′:3,4]benzo[1,2-d][1,2,3]triazol-3-ium bromide], the IC50 in series [1] stood at 55.6 ± 2.36 µM; in series [2], 8.13 ± 0.83 µM. Also, the “Effect on cell viability (in words)” value in the series with PBMCs was “decreased cell viability”. In series [3], the “Inhibition” value is recorded as “did not inhibit TNF-α production”.

`Clc1ccc(C[n+]2nn(Cc3cccc(Cl)c3)c3c4ccsc4ccc32)cc1.[Br-]` [Compound 6, 1-(3-chlorobenzyl)-3-(4-chlorobenzyl)-1H-thieno[3′,2′:3,4]benzo[1,2-d][1,2,3]triazol-3-ium bromide]: the IC50 is 12.9 ± 0.87 µM in series [1] and 0.96 ± 0.14 µM in series [2]. Also, the “Inhibition” value in series [3] was “did not inhibit TNF-α production at any tested concentrations”.

On to `O=[N+]([O-])c1ccc(C[n+]2nn(Cc3cccc(Cl)c3)c3c4ccsc4ccc32)cc1.[Br-]` [Compound 7, 1-(3-chlorobenzyl)-3-(4-nitrobenzyl)-1H-thieno[3′,2′:3,4]benzo[1,2-d][1,2,3]triazol-3-ium bromide], for which the IC50 in series [1] is 11.4 ± 0.39 µM; in series [2], 10 ± 1.64 µM. For the same compound, in series [3], the “Inhibition” value is reported as “did not inhibit TNF-α production at any tested concentrations”.

Take `Fc1cccc(Cn2n[n+](Cc3ccccc3)c3ccc4sccc4c32)c1.[Br-]` [Compound 8, 3-benzyl-1-(3-fluorobenzyl)-1H-thieno[3′,2′:3,4]benzo[1,2-d][1,2,3]triazol-3-ium bromide]: the IC50 is 22.2 ± 2.83 µM in series [1] and 4.52 ± 0.17 µM in series [2]. The “Effect on cell viability (in words)” value in the series on PBMCs is recorded as “decreased cell viability”. Also, the “Inhibition” value in series [3] is on record as “did not inhibit TNF-α production”.

Regarding `Cc1ccc(C[n+]2nn(Cc3cccc(F)c3)c3c4ccsc4ccc32)cc1.[Br-]` [Compound 9, 1-(3-fluorobenzyl)-3-(4-methylbenzyl)-1H-thieno[3′,2′:3,4]benzo[1,2-d][1,2,3]triazol-3-ium bromide], the IC50 in series [1] is 4.8 ± 0.71 µM; in series [2], 0.363 ± 0.038 µM; in series [3], 0.66 µM. For the same compound, the “Effect on cell viability (in words)” value with PBMCs is given as “affected cell viability at the three highest concentrations tested”.

On to `Fc1cccc(Cn2n[n+](Cc3ccc(Cl)cc3)c3ccc4sccc4c32)c1` [Compound 10, 3-(4-chlorobenzyl)-1-(3-fluorobenzyl)-1H-thieno[3′,2′:3,4]benzo[1,2-d][1,2,3]triazol-3-ium bromide], for which the IC50 stood at 9.96 ± 0.42 µM in series [1] and 2.45 ± 0.43 µM in series [2].

Turning to `Cc1cccc(Cn2n[n+](Cc3ccc(Cl)cc3)c3ccc4sccc4c32)c1` [Compound 11, 3-(4-chlorobenzyl)-1-(3-methylbenzyl)-1H-thieno[3′,2′:3,4]benzo[1,2-d][1,2,3]triazol-3-ium bromide], the values for the IC50 in series [1] and in series [2] were 6.23 ± 0.58 µM and 1.11 ± 0.77 µM, respectively.

With `COc1ccc(Cn2n[n+](Cc3ccc(C)cc3)c3ccc4sccc4c32)cc1` [Compound 12, 1-(4-methoxybenzyl)-3-(4-methylbenzyl)-1H-thieno[3′,2′:3,4]benzo[1,2-d][1,2,3]triazol-3-ium bromide], the IC50 in series [1] was determined as 11.8 ± 2.15 µM; in series [2], 3.98 ± 1.25 µM.

Take `COc1ccc(Cn2n[n+](Cc3ccc(Cl)cc3)c3ccc4sccc4c32)cc1` [Compound 13, 3-(4-chlorobenzyl)-1-(4-methoxybenzyl)-1H-thieno[3′,2′:3,4]benzo[1,2-d][1,2,3]triazol-3-ium bromide]: the IC50 in series [1] was found to be 7.4 ± 0.94 µM; in series [2], 4.05 ± 1.05 µM.

For the compound `C=CCn1n[n+](Cc2ccccc2)c2ccc3sccc3c21` [Compound 14, 1-allyl-3-benzyl-1H-thieno[3′,2′:3,4]benzo[1,2-d][1,2,3]triazol-3-ium bromide], the IC50 in series [1] is 2.13 ± 0.13 µM; in series [2], 0.098 ± 0.018 µM.

On to `CC=Cn1n[n+](Cc2ccccc2)c2ccc3sccc3c21` [Compound 15, 3-benzyl-1-(prop-1-en-1-yl)-1H-thieno[3′,2′:3,4]benzo[1,2-d][1,2,3]triazol-3-ium bromide], for which the half-inhibitory concentration (IC50) in series [1] was found to be 3.62 ± 0.42 µM; in series [2], 0.732 ± 0.137 µM.

Turning to `C[C@@H]1C[C@H]2[C@@H]3CCC4=CC(=O)C=C[C@]4(C)[C@@]3(F)[C@@H](O)C[C@]2(C)[C@@]1(O)C(=O)CO` [dexamethasone, reference compound], the IC50 in series [3] was determined as 0.0046 µM.
